Source: article PMC11093982, “Structural and mechanistic insights into Quinolone Synthase to address its functional promiscuity” (Communications Biology, 2024)
Like-named read-outs stand apart in the source and are kept apart here.

Target: AmQNS (quinolone synthase) (Aegle marmelos, UniProt M1HE54)
Assay: Surface plasmon resonance (SPR) AmQNS-substrate interaction studies
Type: binding
Details: for association rate constant (kon): SPR association rate; for dissociation rate constant (koff): SPR dissociation rate
From the text: ProteOn XPR array system[21] and ‘GLM’ sensor chip was used for the SPR interaction studies. […] Here, amine coupling works, where the amine groups present in the AmQNS covalently bind to the chemically activated carboxyl groups of the dextran molecules. Channel L3 and L4 were used for immobilization of protein while L2 was used as reference. The extent of non-specific interactions was eliminated or reduced by optimizing the buffer conditions. […] N-methylanthraniloyl-CoA was purchased from TransMIT (Plant MetaChem, www.plantmetachem.com), whereas all other substrates were purchased from Sigma-Aldrich (www.sigmaaldrich.com).
Following AmQNS immobilization and its stability screening, all binding studies were done at 30 °C. The SPR-based system measures the changes in refractive index to investigate the direct interaction between AmQNS and different CoA substrates. […] In our experiments, AmQNS was captured on the surface of the GLM sensor chip and used to screen the preferred substrates (acyl-CoA’s) in the presence and absence of malonyl-CoA. […] The sensogram was prepared by processing the data (after subtraction of L2 responses (reference channel). Baseline drift due to the bulk refractive index change, non-specific binding, matrix effects and injection noise were also corrected using the reference spots. Further, the responses obtained from the AmQNS-small molecular interactions at different concentrations were fitted using the Langmuir 1:1 biomolecular interaction model using the ProteOn Manager software version 3.1.0.6 (Bio-Rad, USA). Equilibrium dissociation constants (KD) were calculated from the ratio of the association and dissociation rates.

[1] = AmQNS immobilized on GLM chip, 30 °C, Langmuir 1:1 model
[2] = SPR, AmQNS immobilized on GLM chip, 30 °C, Langmuir 1:1 model, read-out: KD (KD= kd /ka)
[3] = SPR, AmQNS immobilized on GLM chip, 30 °C, in presence of malonyl-CoA, Langmuir 1:1 model, read-out: KD

AmQNS (quinolone synthase), sequence (M1HE54 entry or part of it): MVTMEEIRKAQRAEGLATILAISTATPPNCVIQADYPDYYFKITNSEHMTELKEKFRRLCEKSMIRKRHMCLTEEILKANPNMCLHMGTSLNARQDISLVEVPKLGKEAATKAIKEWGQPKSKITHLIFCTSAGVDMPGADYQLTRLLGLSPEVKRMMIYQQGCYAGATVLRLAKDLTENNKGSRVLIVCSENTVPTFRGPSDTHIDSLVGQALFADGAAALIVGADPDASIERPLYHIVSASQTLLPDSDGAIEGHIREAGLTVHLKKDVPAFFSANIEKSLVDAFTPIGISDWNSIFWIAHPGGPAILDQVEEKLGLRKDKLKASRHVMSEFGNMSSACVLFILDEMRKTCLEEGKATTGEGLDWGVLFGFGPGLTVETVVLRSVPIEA

SMILES	Kd	association rate constant (kon) [1]	dissociation rate constant (koff) [1]	Kd [2]	Kd [3]
CCCC(=O)SCCNC(=O)CCNC(=O)[C@H](O)C(C)(C)COP(=O)(O)OP(=O)(O)OC[C@H]1O[C@@H](n2cnc3c(N)ncnc32)[C@H](O)[C@@H]1OP(=O)(O)O [Butyryl-CoA]	1370 nM	36100 M⁻¹ s⁻¹	0.0495 s⁻¹		
COc1cc(/C=C/C(=O)SCCNC(=O)CCNC(=O)[C@H](O)C(C)(C)COP(=O)(O)OP(=O)(O)OC[C@H]2O[C@@H](n3cnc4c(N)ncnc43)[C@H](O)[C@@H]2OP(=O)(O)O)cc(OC)c1O [Sinapoyl-CoA]		141000 M⁻¹ s⁻¹	0.0163 s⁻¹	116 nM	
CNc1ccccc1C(=O)SCCNC(=O)CCNC(=O)[C@H](O)C(C)(C)COP(=O)(O)OP(=O)(O)OC[C@H]1O[C@@H](n2cnc3c(N)ncnc32)[C@H](O)[C@@H]1OP(=O)(O)O [N-methylanthraniloyl-CoA]		1e+08 M⁻¹ s⁻¹	0.204 s⁻¹		2.04 nM
CCCCCC(=O)SCCNC(=O)CCNC(=O)[C@H](O)C(C)(C)COP(=O)(O)OP(=O)(O)OC[C@H]1O[C@@H](n2cnc3c(N)ncnc32)[C@H](O)[C@@H]1OP(=O)(O)O [Hexanoyl-CoA]		963000 M⁻¹ s⁻¹	0.00703 s⁻¹		7.3 nM
CC(C)(COP(=O)(O)OP(=O)(O)OC[C@H]1O[C@@H](n2cnc3c(N)ncnc32)[C@H](O)[C@@H]1OP(=O)(O)O)[C@@H](O)C(=O)NCCC(=O)NCCSC(=O)CC(=O)O [Malonyl-CoA]		78200 M⁻¹ s⁻¹	0.0134 s⁻¹	172 nM	
CCCCCCCCCCCCCC(=O)SCCNC(=O)CCNC(=O)[C@H](O)C(C)(C)COP(=O)(O)OP(=O)(O)OC[C@H]1O[C@@H](n2cnc3c(N)ncnc32)[C@H](O)[C@@H]1OP(=O)(O)O [Myristoyl-CoA]		13000 M⁻¹ s⁻¹	0.00404 s⁻¹		
CCCCCCCCCCCCCCCC(=O)SCCNC(=O)CCNC(=O)[C@H](O)C(C)(C)COP(=O)(O)OP(=O)(O)OC[C@H]1O[C@@H](n2cnc3c(N)ncnc32)[C@H](O)[C@@H]1OP(=O)(O)O [Palmitoyl-CoA]		45800 M⁻¹ s⁻¹	0.00417 s⁻¹	91.1 nM	
CC(C)(COP(=O)(O)OP(=O)(O)OC[C@H]1O[C@@H](n2cnc3c(N)ncnc32)[C@H](O)[C@@H]1OP(=O)(O)O)[C@@H](O)C(=O)NCCC(=O)NCCSC(=O)/C=C/c1ccc(O)cc1 [p-coumaroyl CoA]		591000 M⁻¹ s⁻¹	0.0595 s⁻¹	101 nM	
CCCCCCCCCCCCCCCCCC(=O)SCCNC(=O)CCNC(=O)[C@H](O)C(C)(C)COP(=O)(O)OP(=O)(O)OC[C@H]1O[C@@H](n2cnc3c(N)ncnc32)[C@H](O)[C@@H]1OP(=O)(O)O [Stearoyl-CoA]		11700 M⁻¹ s⁻¹	0.00193 s⁻¹	164 nM	
CC(C)(COP(=O)(O)OP(=O)(O)OC[C@H]1O[C@@H](n2cnc3c(N)ncnc32)[C@H](O)[C@@H]1OP(=O)(O)O)[C@@H](O)C(=O)NCCC(=O)NCCSC(=O)c1ccccc1 [Benzoyl-CoA]		9510 M⁻¹ s⁻¹	0.0267 s⁻¹	2800 nM	
COc1cc(/C=C/C(=O)SCCNC(=O)CCNC(=O)[C@H](O)C(C)(C)COP(=O)(O)OP(=O)(O)OC[C@H]2O[C@@H](n3cnc4c(N)ncnc43)[C@H](O)[C@@H]2OP(=O)(O)O)ccc1O [Feruloyl-CoA]		1e+08 M⁻¹ s⁻¹	0.983 s⁻¹		9.83 nM
